Test results: US20250154144A1 (CHILDREN'S HOSPITAL MEDICAL CENTER, priority 2021, published 2025)
pIC50, pKd: −log10 of the molar value. Read-outs that look alike come from different tables or passages of the source.

How the values were obtained:
FLT3 [1] = target: T1, FLT3 (Homo sapiens, UniProt P36888); assay: Reaction Biology NanoBRET target engagement assay in HEK-293 cells, FLT3; conditions: NanoBRET FLT3 IC50, HEK-293 cells
T1 sequence (P36888 27-993): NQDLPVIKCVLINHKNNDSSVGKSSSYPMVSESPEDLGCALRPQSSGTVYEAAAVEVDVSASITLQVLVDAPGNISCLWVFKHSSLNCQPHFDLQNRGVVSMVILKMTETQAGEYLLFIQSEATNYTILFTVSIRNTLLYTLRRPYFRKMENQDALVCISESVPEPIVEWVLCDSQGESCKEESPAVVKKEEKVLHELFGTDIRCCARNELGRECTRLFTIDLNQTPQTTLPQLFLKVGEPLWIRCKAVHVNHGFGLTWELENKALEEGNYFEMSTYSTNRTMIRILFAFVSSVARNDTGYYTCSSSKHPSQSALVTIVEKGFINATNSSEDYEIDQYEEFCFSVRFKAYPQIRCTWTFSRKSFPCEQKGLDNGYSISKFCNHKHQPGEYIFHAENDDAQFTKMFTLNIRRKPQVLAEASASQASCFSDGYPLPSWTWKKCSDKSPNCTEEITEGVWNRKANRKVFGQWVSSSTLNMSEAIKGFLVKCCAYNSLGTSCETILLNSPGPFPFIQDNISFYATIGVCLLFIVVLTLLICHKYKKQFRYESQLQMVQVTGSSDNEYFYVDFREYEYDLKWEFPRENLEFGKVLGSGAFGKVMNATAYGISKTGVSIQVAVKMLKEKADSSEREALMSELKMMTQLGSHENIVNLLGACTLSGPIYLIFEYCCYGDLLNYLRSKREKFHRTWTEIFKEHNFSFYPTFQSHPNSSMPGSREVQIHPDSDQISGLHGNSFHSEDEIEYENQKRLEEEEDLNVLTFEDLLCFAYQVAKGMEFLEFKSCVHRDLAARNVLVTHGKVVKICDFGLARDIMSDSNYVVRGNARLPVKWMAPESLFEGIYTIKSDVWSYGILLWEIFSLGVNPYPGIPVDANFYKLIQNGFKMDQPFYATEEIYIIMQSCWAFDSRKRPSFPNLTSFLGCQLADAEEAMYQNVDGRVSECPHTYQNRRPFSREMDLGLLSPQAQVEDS

MOLM14 D835Y cells = assay: cells; type: cell-based; conditions: Homo sapiens, MOLM-14, 48 h, 48 hours, Cell Titer Glo; read-out: MOLM14 D835Y IC50
FLT3 [2] = target: T2, FLT3 (Homo sapiens, UniProt P36888); assay: RBC HotSpot Kinase Assay, FLT3; conditions: FLT3 IC50
T2 sequence (P36888 610-943 limits assumed): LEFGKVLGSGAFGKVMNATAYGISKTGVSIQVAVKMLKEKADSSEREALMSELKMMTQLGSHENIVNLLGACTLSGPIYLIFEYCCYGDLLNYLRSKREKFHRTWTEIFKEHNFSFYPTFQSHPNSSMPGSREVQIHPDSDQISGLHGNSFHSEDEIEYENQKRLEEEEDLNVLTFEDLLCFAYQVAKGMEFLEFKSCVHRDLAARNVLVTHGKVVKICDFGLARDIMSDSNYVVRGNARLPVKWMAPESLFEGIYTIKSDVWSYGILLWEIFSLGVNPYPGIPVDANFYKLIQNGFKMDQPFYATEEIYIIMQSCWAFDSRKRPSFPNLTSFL

MOLM14 F691L cells = assay: cells; type: cell-based; conditions: Homo sapiens, MOLM-14, 48 h, 48 hours, Cell Titer Glo; read-out: MOLM14 F691L IC50
IRAK4 [3] = target: T3, IRAK4 (Homo sapiens, UniProt Q9NWZ3); assay: Reaction Biology NanoBRET target engagement assay in HEK-293 cells, IRAK4; conditions: NanoBRET IRAK4 IC50, HEK-293 cells
T3 sequence (Q9NWZ3 1-460): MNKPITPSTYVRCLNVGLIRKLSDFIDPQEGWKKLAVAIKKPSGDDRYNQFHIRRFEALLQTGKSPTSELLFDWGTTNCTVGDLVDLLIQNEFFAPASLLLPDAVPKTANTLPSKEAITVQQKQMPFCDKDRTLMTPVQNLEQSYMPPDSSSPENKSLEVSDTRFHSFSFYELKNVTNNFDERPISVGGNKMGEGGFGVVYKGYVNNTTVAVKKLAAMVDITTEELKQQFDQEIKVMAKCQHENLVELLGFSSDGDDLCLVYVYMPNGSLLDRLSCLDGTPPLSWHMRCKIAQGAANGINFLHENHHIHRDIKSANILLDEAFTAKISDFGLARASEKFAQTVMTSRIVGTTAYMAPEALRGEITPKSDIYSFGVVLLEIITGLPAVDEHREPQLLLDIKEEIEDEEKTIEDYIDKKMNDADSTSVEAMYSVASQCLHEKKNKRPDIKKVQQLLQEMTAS

IRAK1 [4] = target: T4, IRAK1 (Homo sapiens, UniProt P51617); assay: RBC HotSpot Kinase Assay, IRAK1; conditions: IRAK1 IC50
T4 sequence (P51617 whole entry): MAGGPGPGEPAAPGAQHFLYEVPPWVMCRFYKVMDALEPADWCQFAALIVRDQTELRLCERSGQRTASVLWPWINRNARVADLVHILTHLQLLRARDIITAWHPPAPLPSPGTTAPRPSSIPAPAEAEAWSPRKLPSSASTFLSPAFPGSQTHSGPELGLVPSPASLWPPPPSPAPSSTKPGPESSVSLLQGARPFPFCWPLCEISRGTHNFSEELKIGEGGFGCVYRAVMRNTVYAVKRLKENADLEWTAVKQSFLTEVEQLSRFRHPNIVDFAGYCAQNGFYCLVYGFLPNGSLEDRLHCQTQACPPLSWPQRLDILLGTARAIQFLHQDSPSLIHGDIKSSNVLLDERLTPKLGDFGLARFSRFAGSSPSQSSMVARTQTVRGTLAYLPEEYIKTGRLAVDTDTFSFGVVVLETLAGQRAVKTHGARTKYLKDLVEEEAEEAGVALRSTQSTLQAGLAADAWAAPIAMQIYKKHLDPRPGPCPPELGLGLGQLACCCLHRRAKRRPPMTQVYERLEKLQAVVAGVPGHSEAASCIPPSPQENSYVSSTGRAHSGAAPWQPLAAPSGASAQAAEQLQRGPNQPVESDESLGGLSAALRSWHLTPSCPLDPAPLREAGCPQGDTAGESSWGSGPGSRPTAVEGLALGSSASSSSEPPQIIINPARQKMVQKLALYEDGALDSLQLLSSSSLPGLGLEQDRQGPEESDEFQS

IRAK4 [5] = target: T3, IRAK4; assay: RBC HotSpot Kinase Assay, IRAK4; conditions: IRAK4 IC50
MOLM14(D835Y) cells = type: cell-based; conditions: MOLM14(D835Y) cells; for Excess HSA Score: 10 × 10
THP1 cells = assay: Combination drug screening, Cell Titer Glo, 10 × 10 matrix, THP1 cells; type: cell-based; conditions: THP1 cells; for Excess HSA Score: 10 × 10
IRAK1 [6] = target: T4, IRAK1; assay: DiscoverX KINOMEscan competition binding, IRAK1; design: purchased RBC (Reaction Biology) HotSpot assay
IRAK4 [7] = target: T3, IRAK4; assay: DiscoverX KINOMEscan competition binding, IRAK4; design: purchased RBC (Reaction Biology) HotSpot assay
[8] = combination with (+)-BAY-1251152
[9] = combination with Eprenetapopt/APR-246
[10] = combination with Venetoclax (ABT-199)

Structure (SMILES) | pIC50 (FLT3 [1]) | pIC50 (MOLM14 D835Y cells) | pIC50 (FLT3 [2]) | pIC50 (MOLM14 F691L cells) | pIC50 (IRAK4 [3]) | pIC50 (IRAK1 [4]) | pIC50 (IRAK4 [5]) | Excess HSA Score (MOLM14(D835Y) cells; [8]) | Excess HSA Score (MOLM14(D835Y) cells; combination with AMG-232) | Excess HSA Score (MOLM14(D835Y) cells; combination with AZD-5363) | Excess HSA Score (MOLM14(D835Y) cells; [9]) | Excess HSA Score (MOLM14(D835Y) cells; combination with Ivosidenib) | Excess HSA Score (MOLM14(D835Y) cells; combination with Lenalidomide) | Excess HSA Score (MOLM14(D835Y) cells; combination with Palbociclib) | Excess HSA Score (MOLM14(D835Y) cells; combination with Prednisolone) | Excess HSA Score (MOLM14(D835Y) cells; combination with SNDX-5613) | Excess HSA Score (MOLM14(D835Y) cells; combination with TNO-155) | Excess HSA Score (MOLM14(D835Y) cells; combination with Trametinib) | Excess HSA Score (MOLM14(D835Y) cells; combination with Ulixertinib) | Excess HSA Score (MOLM14(D835Y) cells; [10]) | also measured
CC(C)Oc1ccn2c(-c3ccnc(N[C@H]4CNC[C@@H]4F)n3)cnc2c1 [Compound 25, N-((3S,4S)-4-fluoropyrrolidin-3-yl)-4-(7-isopropoxyimidazo[1,2-a]pyridin-3-yl)pyrimidin-2-amine] | 7.47 | 7.28 | 9.10 | 6.22 | > 9.30 | 7.62 | 8.52 |  |  |  |  |  |  |  |  |  |  |  |  |  | 
CC(C)Oc1ccn2c(-c3ccnc(N[C@@H]4CCCNC4)n3)cnc2c1 [Compound 26, (R)-4-(7-isopropoxyimidazo[1,2-a]pyridin-3-yl)-N-(piperidin-3-yl)pyrimidin-2-amine] | 8.70 | 7.72 | > 9.30 | 6.77 | > 9.30 | 7.28 | 8.70 |  |  |  |  |  |  |  |  |  |  |  |  |  | 
COc1ccn2c(-c3ccnc(N[C@H]4CNC[C@@H]4F)n3)cnc2c1 [Compound 28, N-((3S,4S)-4-fluoropyrrolidin-3-yl)-4-(7-methoxyimidazo[1,2-a]pyridin-3-yl)pyrimidin-2-amine] | 7.19 | 7.72 | > 9.30 | 6.51 | 9.15 | 8.22 | 9.10 | −477 | −628.3 | −377.1 | 330.3 | −92.39 | 340.1 | −207.7 | −600.8 | 49.85 | −593.8 | 115.3 | 57.98 | −1089 | Comments (MOLM14(D835Y) cells; combination with SNDX-5613): Antagonistic; Comments (MOLM14(D835Y) cells; [10]): Synergistic; Excess HSA Score (THP1 cells; [8]): −347.5; Excess HSA Score (THP1 cells; combination with AMG-232): 401.8; Excess HSA Score (THP1 cells; combination with AZD-5363): −208.6; Excess HSA Score (THP1 cells; [9]): −126.4; Excess HSA Score (THP1 cells; combination with Ivosidenib): 313; Excess HSA Score (THP1 cells; combination with Lenalidomide): 486.7; Excess HSA Score (THP1 cells; combination with Palbociclib): −270.8; Excess HSA Score (THP1 cells; combination with Prednisolone): 381.4; Excess HSA Score (THP1 cells; combination with SNDX-5613): 492.2; Excess HSA Score (THP1 cells; combination with TNO-155): 98.5766; Excess HSA Score (THP1 cells; combination with Trametinib): −880.8; Excess HSA Score (THP1 cells; combination with Ulixertinib): −60.25; Excess HSA Score (THP1 cells; [10]): −1412; Comments (THP1 cells; combination with TNO-155): Antagonistic; Comments (THP1 cells; [10]): Synergistic
F[C@H]1CCNC[C@@H]1Nc1nccc(-c2cnc3cc(OC4CC4)ccn23)n1 [Compound 39, 4-(7-cyclopropoxyimidazo [1,2-a]pyridin-3-yl)-N-((3S,4S)-4-fluoropiperidin-3-yl)pyrimidin-2-amine] | 7.82 | 7.62 | > 9.30 | 6.76 | 9.10 | 7.96 | 8.70 |  |  |  |  |  |  |  |  |  |  |  |  |  | 
COc1cc2ncc(-c3ccnc(N[C@H]4CNC[C@@H]4F)n3)n2cc1C(C)(C)O [Compound 43, 2-(3-(2-(((3S,4S)-4-fluoropyrrolidin-3-yl)amino)pyrimidin-4-yl)-7-methoxyimidazo[1,2-a]pyridin-6-yl)propan-2-ol] |  | 7.96 |  | 7.16 |  | 9.15 | > 9.30 |  |  |  |  |  |  |  |  |  |  |  |  |  | pKd (IRAK1 [6]): 9.48; pKd (IRAK4 [7]): 10.09
COc1cc2ncc(-c3ccnc(N[C@H]4CNCC[C@@H]4F)n3)n2cc1C(C)(C)O [Compound 45, 2-(3-(2-(((3S,4S)-4-fluoropiperidin-3-yl)amino)pyrimidin-4-yl)-7-methoxyimidazo[1,2-a]pyridin-6-yl)propan-2-ol] | 7.55 | 8.05 | > 9.30 | 7.37 | > 9.30 | 8.70 | 9.15 | 117.1 | −212.5 | 384.6 | 477.7 | −76.48 | 515.9 | −172.2 | −357.5 | 58.42 | −372.6 | −362.6 | 288.2 | −803.3 | Comments (MOLM14(D835Y) cells; combination with SNDX-5613): Antagonistic; Comments (MOLM14(D835Y) cells; [10]): Synergistic; Excess HSA Score (THP1 cells; [8]): −402.7072; Excess HSA Score (THP1 cells; combination with AMG-232): 138.2; Excess HSA Score (THP1 cells; combination with AZD-5363): −206.1; Excess HSA Score (THP1 cells; [9]): 183; Excess HSA Score (THP1 cells; combination with Ivosidenib): 93.15; Excess HSA Score (THP1 cells; combination with Lenalidomide): 388.3; Excess HSA Score (THP1 cells; combination with Palbociclib): −236; Excess HSA Score (THP1 cells; combination with Prednisolone): 67.79; Excess HSA Score (THP1 cells; combination with SNDX-5613): 169.6; Excess HSA Score (THP1 cells; combination with TNO-155): −134.2061; Excess HSA Score (THP1 cells; combination with Trametinib): −226.2; Excess HSA Score (THP1 cells; combination with Ulixertinib): 218.0361; Excess HSA Score (THP1 cells; [10]): −360.8; Comments (THP1 cells; [8]): Synergistic; Comments (THP1 cells; combination with Prednisolone): Antagonistic
